Data published in BindingDB's records for doi:10.1038/nchembio.65 (University of California San Francisco, 2008).

Assay: Inhibition of yeast prion protein Sup35 infection of PSI yeast spheroplast cells

**Q.** With `O=C1C(I)=CC(=C(c2ccccc2C(=O)O)C2C=C(I)C(=O)C(I)=C2)C=C1I` [TERAIODOPHENOLPHATHALIN] as the molecule, how does the EC50 read?
**A.** Its EC50 is 100 µM.
